Experimental data published in patent US12029715B2, “Precursor compounds for providing retinoids of the vitamin A5 pathway and uses thereof” (UNIVERSITY OF DEBRECEN, priority 2015, dated 2024).
“Also recorded” adds a separate entry of the source. Blank lines part the entries; values can stand above or below the molecule they belong to.

Columns and labels:
[1] = test system: differentiating monocyte-derived human dendritic cells; test: DNA microarray in differentiating monocyte-derived dendritic cells; type: cell-based
Description: The generation and transcriptional analysis of differentiating DCs were performed as described previously [Szeles L et al. 2010]. Microarray data were deposited into the Gene Expression Omnibus database under accession no. GSE48573.
The generation and analysis of differentiating DCs were performed as described previously [Szeles L et al. 2010] with minor modifications. Briefly, human monocytes were isolated from healthy volunteer's buffy coat, obtained with a Regional Ethical Board permit from the Regional Blood Bank and isolated by Ficoll gradient centrifugation followed by immunomagnetic cell separation, and were cultured in the presence of GM-CSF and IL-4. Differentiating DCs were stimulated 18 h after […] by various agonists for 12 h. The ligands were used in the following concentrations: 10 μM (R)-9CDHRA, 10 μM (S)-9CDHRA, 1 μM 9cisRA, 100 nM LG100268, 1 μM GW3965, 1 μM Rosiglitazone (RSG), 1 μM GW1516, 100 nM AM580. Experiments were performed in biological triplicates. Samples were processed and hybridized to Human Genome U133 Plus 2.0 Arrays. Data were analysed using to GeneSpring 12.6.1 software. In detail, normalization was performed using RMA summarization algorithm. […] Microarray data were deposited into the Gene Expression Omnibus database under accession no. GSE48573.

hRXRα LBD = biological target: T1, hRXRα LBD (Homo sapiens, UniProt P19793); test: ESI-MS in non-denaturing conditions, binding to RXR LBD; design: cDNAs encoding hRXRα LBD (223-462); His-tag (N); made in house; conditions: 5-fold molar excess of ligand
T1 sequence (P19793 223-462): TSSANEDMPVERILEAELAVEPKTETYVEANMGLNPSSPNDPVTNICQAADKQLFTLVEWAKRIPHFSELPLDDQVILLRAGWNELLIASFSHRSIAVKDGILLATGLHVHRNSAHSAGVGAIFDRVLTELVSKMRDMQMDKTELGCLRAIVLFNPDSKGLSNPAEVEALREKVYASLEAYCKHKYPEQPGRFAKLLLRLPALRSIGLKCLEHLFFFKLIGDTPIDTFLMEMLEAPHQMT
Description: (§1) cDNAs encoding hRXRα LBD (223-462), hRARα LBD (153-421), hRARBβ LBD (169-414) and hRARγ LBD (178-423) were cloned into pET28b vector to generate N-terminal Histag fusion proteins. Purification was carried out as previously described [Lippert W P et al. 2009, Osz J, et al. 2012], including a metal affinity chromatography and a gel filtration. For details of sample preparation and ESI-MS analyses see below.
cDNAs encoding hRXRαLBD (223-462), hRARαLBD (153-421), hRARβLBD (169-414) and hRARγ LBD (178-423) were cloned into pET28b vector to generate N-terminal His-tag fusion proteins. Purification was carried out as previously described [Lippert W P et al. 2009, Osz J, et al. 2012], including a metal affinity chromatography and a gel filtration. Prior to ESI-MS analysis, samples were desalted on Zeba Spin desalting columns (Pierce) in 150 mM ammonium acetate (pH 8.0). ESI-MS measurements were performed on an electrospray time-of-flight mass spectrometer (MicrOTOF, Bruker Daltonics). Purity and homogeneity of the proteins were verified by mass spectrometry in denaturing conditions (samples were diluted at 2 pmol/μl in a 1:1 water-acetonitrile mixture (v/v) acidified with 1% formic acid). The mass measurements of the noncovalent complexes were performed in ammonium acetate (200 mM; pH 8.0). Samples were diluted to 8 pmol/ml in the previous buffer and continuously infused into the ESI ion source at a flow rate of […] through a Harvard syringe pump (Harvard Apparatus model 11). A careful optimization of the interface parameters was performed to obtain the best sensitivity and spectrum quality without affecting the noncovalent complexes stability. In particular, the capillary exit (CE) ranged from 60 to 150 V with a vacuum interface pressure of 2.3 mbar and was set to 80 V. For ligand-interaction analysis, ligands were added to the proteins in a 5-fold molar excess.

hRARα, β and γ LBDs = test: ESI-MS in non-denaturing conditions, binding to RAR LBD isotypes; design: species or system human; conditions: 5-fold molar excess of ligand
Description: as §1
cDNAs encoding hRXRαLBD (223-462), hRARαLBD (153-421), hRARβLBD (169-414) and hRARγ LBD (178-423) were cloned into pET28b vector to generate N-terminal His-tag fusion proteins. Purification was carried out as previously described [Lippert W P et al. 2009, Osz J, et al. 2012], including a metal affinity chromatography and a gel filtration. Prior to ESI-MS analysis, samples were desalted on Zeba Spin desalting columns (Pierce) in 150 mM ammonium acetate (pH 8.0). ESI-MS measurements were performed on an electrospray time-of-flight mass spectrometer (MicrOTOF, Bruker Daltonics). Purity and homogeneity of the proteins were verified by mass spectrometry in denaturing conditions (samples were diluted at 2 pmol/μl in a 1:1 water-acetonitrile mixture (v/v) acidified with 1% formic acid). The mass measurements of the noncovalent complexes were performed in ammonium acetate (200 mM; pH 8.0). […]

[2] = test system: Rbp1−/−, Rxrγ−/− and WT mice; test: Forced swim test after acute treatment; type: in vivo, mouse; conditions: Rbp1−/− mice, acute i.p. treatment 5-6 h before the test
Description: (§2) The forced swim paradigm was carried out between 1 pm and 4 pm in a 3-litre glass beaker half-filled with water at 22-23° C. (the water depth was 17 cm). All mice were tested only once in this task. To this end, each mouse was lowered gently into the water and the time of immobility was scored during a 6-minute testing period. The mouse was judged immobile when it floated in an upright position and made only small movements to keep its head above the water. After 6 min, the mouse was taken out of the water, left to dry under a red light lamp and returned to its home cage. The immobility scores of each animal were used as an index of despair behavior.
(§3) Vehicle treatments consisted of 3% ethanol and 3% DMSO solution in sunflower oil. Treatments were administered by intraperitoneal injections at volume/weight ratio 3 ml/kg between 8-10 am and 5-6 h before the test as previously validated (Wietrzych-Schindler M, 2011).
as §2, with “paradigm (Dalvi and Lucki, 1999)” for “paradigm”, “2-litre” for “3-litre”

Rbp1−/− and Rxrγ−/− mice = test: Y-maze spontaneous alternation; type: in vivo, mouse; conditions: 5-6 hours prior to testing
Description: The Y-maze apparatus and the procedure were as previously described (Wietrzych et al., 2005). Briefly, each mouse was placed at the end of one arm and allowed to explore freely the apparatus for 5 min, with the experimenter out of the animal's sight. Spontaneous alternation performance (SAP) was assessed visually by scoring the pattern of entries into each arm and expressed as a percentage of total number of entries, discounting the first two visits. Total entries were scored as an index of ambulatory activity in the Y-maze, but none of tested mice had to be excluded due to low locomotor performance (score below 9 entries).
as §3

[3] = test system: Rbp1−/−, Rxrγ−/− and WT mice; test: Delayed non-match to place (DNMTP) working memory task in the T-maze; type: in vivo, mouse; conditions: ITI of 6 min
Description: Behaviorally naïve groups of mice were tested in the DNMTP (delayed non-match to place) procedure in the T-maze according to a protocol previously described (Wietrzych et al., 2005), with modifications to facilitate pharmacological tests (Wietrzych-Schindler et al., 2011). Spontaneous alternation was evaluated in the Ymaze apparatus according to protocol described in detail below.
Specifically, in the present protocol, animals were first trained for 10 consecutive days with minimal inter-trial intervals (ITI) of about 15 sec, which was necessary to attain the criterion of 90% or more of correct choices during […] consecutive days (days 9-10). After this period ITI was increased semi-randomly by blocks of 3-6 min during 5 consecutive days (days 11-15 indicated) to determine “test ITI” for each animal, which was defined as the shortest ITI at which mice perform at chance level. From day 16 mice were tested using corresponding “test ITI” delays following vehicle injection on the day 16 (to test for the effect of vehicle alone) and following 9CDHROL (40 mg/kg) injection on day 17. Three mice were excluded from testing since their latency to choose the arm during the retention phase exceeded 3 min in more than one trial/day on three consecutive days (exclusion criterion). On the day 18 mice were again injected (IP) with 9CDHROL (40 mg/kg) and 9 hours later sacrificed for chemical analyses. Mice which received vehicle injections on three consecutive days were used as vehicle-treated controls for analyses of 9CDHROL metabolism. An additional group of 3 naïve mice was also injected with 9CDHROL (40 mg/kg) to test for 9CDHROL metabolism following acute treatment.
In this variant, animals were first trained for 9 consecutive days of with minimal inter-trial intervals (ITI) of about 15 sec, which was necessary to attain the criterion of 90% or more of correct choices during three consecutive days (days 7-9). After this period ITI was increased semi-randomly to 180, 360, 720 and for some WT mice also 1080 seconds so that each animal was tested 6 times with each interval during four consecutive days (days 10-13 indicated). From day 13 mice were tested only twice per week beginning with training session on day one (with minimal, 15 sec ITIs) and testing pharmacological treatments on the second day. Only one pharmacological treatment was tested every 7 days. To test pro-mnemonic activities of UVI2108 and (R)-9CDHRA inventors used a minimal ITI, at which mice performed at chance level (50%) and which was 6 min for the Rbp1−/− or Rxrγ−/− groups and 12 min for most WT mice with exception of two mice tested at 18 min. Four mice (two wild types and one of each knockout line), were excluded from testing since their latency to choose the arm during the retention phase exceeded 3 min in more than one trial/day on three consecutive days (exclusion criterion).
For behavioral analysis, 9CDHROL and 9CDHBC were dissolved in ethanol, and then mixed with sunflower oil, so that the final solution contained 3% ethanol. Vehicle treatments consisted of 3% ethanol solution in sunflower oil. For memory studies treatments with 9CDHRA were administered by intraperitoneal injections at volume/weight ratio 3 ml/kg at 7 am and 7 hours before the beginning of testing. For tests with animal model of chronic social defeat, different treatments were administered by intraperitoneal injections at volume/weight ratio 3 ml/kg at 10 mg/kg for each substance between 5-6 pm every second day of stress protocol immediately after the stress session starting from day 1 of the stress protocol.
as §3

[4] = test system: human oligodendrocytes cell cultures; test: Metabolic conversion in human oligodendrocytes cell culture (HPLC-MS); type: in vitro ADME; conditions: 10^−6M, n=3
Description: (§4) In a slight variant of the method, after reaching confluency of 80% cells were treated with 9CDHROL, 9CDH-retinyl ester (acetate, 9CDHROL-ES), 9CDHRA, 9CDH-retinoyl ester, (ethyl ester, 9CDHRA-ES), ATROL, 9CDHBC, 9CBC and ATBC at a concentration of 10^−6 M or ethanol at corresponding concentration was used as control vehicle treatment. Cells were harvested 18 hours later, centrifuged, weighted, frozen in liquid nitrogen and stored at −80° C. until analyses.
(§5) High performance liquid chromatography mass spectrometry (LC-MS) was carried out as described in Example 4.
9CDHRA levels including standard deviation in human oligodendrocytes cultures were assessed using HPLC-MS analysis after control treatment using ethanol (CTRL), as well as ATROL treatment (ATROL), 9CBC treatments (9CBC), ATBC treatments (ATBC), 9CDHBC treatment (9CDHBC), 9CDHROL treatments (9CDHROL), 9CDHROL-ester treatments (9CDHROL-ES), 9CDHRA treatments (9CDHRA) or 9CDHRA-ester treatments (9CDHRA-ES), each with 10^−6M concentration and n=3 (FIG. 14D).

[5] = Mouse oral supplementation, retinoid levels in serum, brain and liver (LC-MS); type: in vivo; conditions: mice
[6] = test system: oligodendrocytes cell line 158N; test: Metabolic conversion in mouse oligodendrocytes cell culture (LC-MS); type: in vitro ADME
Description: Normal immortalized oligodendrocytes cell line 158N was cultured as previously reported (Feutz et al., 2001). Expediently, cells were cultured in supplemented with 5% calf serum (Invitrogen, France). When cells attained 70% of confluency they were treated with 10^−2 M ethanol solution of one of the following compounds: 9CDHROL, 9CDHROL-acetate, 9CDHRA-ethyl ester. 9CDHRA and ethanol as controls, vehicle treatment. 18 h after treatment cells were collected in amber Eppendorf tubes and stored at −80° C. until analyses. Treatments and cell collection were carried out in light limited conditions to avoid photolysis of retinoids.
as §4, §5

[7] = per os 40 mg/kg, 11 h after treatment

binding to RXR LBD in ESI-MS (hRXRα LBD): lower affinity | binding to RAR LBD isotypes in ESI-MS (hRARα, β and γ LBDs): bind to all RAR LBD isotypes
Structure (SMILES): CC1=C(/C=C/C(C)=C\C=C\[C@@H](C)CC(=O)O)C(C)(C)CCC1 [(S)-9CDHRA, (9Z,13S)-13,14-Dihydroretinoic Acid]
overlap in transcriptional changes with 9CRA [1]: about 80% | expression of genes that are direct targets of RXR permissive heterodimers (LXR-RXR, PPAR-RXR) and RAR-RXR ([1]; 9CDHRA 10 μM, 9CRA 1 μM, LG268 100 nM, GW3965 1 μM, RSG 1 μM, GW1516 1 μM, AM580 100 nM): induced the expression of genes

Structure (SMILES): CC1=C(/C=C/C(C)=C/C=C/C(C)=C/C(=O)O)C(C)(C)CCC1 [ATRA, all-trans-retinoic acid]
immobility (despair) in the forced swim test [2]: reduced significantly immobility time | working memory in spontaneous alternation in the Y-maze (Rbp1−/− and Rxrγ−/− mice; Rbp1−/− mice, ATRA 5 mg/kg, UVI2108 1 mg/kg, MA 5 mg/kg, DHA 1 mg/kg, TTNPB 5 mg/kg): normalised; also recorded: pro-mnemonic effects | working memory in spontaneous alternation in the Y-maze (Rbp1−/− and Rxrγ−/− mice; Rxrγ−/− mice, same doses): not | working memory performance in DNMTP task ([3]; Rbp1−/− mice, acute treatment, (R)-9CDHRA 1 or 2 mg/kg): reversed memory deficits | working memory performance in DNMTP task ([3]; Rxrγ−/− mice): remained ineffective

Structure (SMILES): CC1=C(/C=C/C(C)=C/C=C/C(C)=C/CO)C(C)(C)CCC1 [ATROL, all-trans-retinol, reference compound]
9CDHRA levels in cells after treatment (metabolism / accumulation) [4]: not converted to 9CDHRA | ATROL levels in mouse organs after treatment ([5]; oral gavage 40 mg/kg): strongly and significantly increased ATROL levels | 9CDHRA levels in serum, brain and liver after treatment (conversion to 9CDHRA) [5, 7]: significantly increased levels in brain and liver | 9CDHROL levels in serum, brain and liver after treatment [5, 7]: did not increase | ATROL levels in cells after treatment ([6]; 10^−6M): strongly and significantly increased ATROL levels | 9CDHROL levels in cells after treatment ([6]; 10^−6 M, 18 hours): no or just a weak increase; also recorded: weak significant increase | conversion to 9CDHRA ([6]; data not shown): not converted to 9CDHRA
